Measurements: patent US9365830B2, “Agents and methods for inhibiting human pluripotent stem cell growth” (VIACYTE, INC., priority 2010, dated 2016)
Counter-ions that a name gives are not always drawn. Like-named read-outs stand apart in the source and are kept apart here.

Key:
Assay type in all cases: cell-based, human
NPCs = assay: Secondary screen, lowest effective dose on NPCs; conditions: lowest concentration that elicited cytotoxicity, range 0.1 to 50 μM, read-out: ED NPC (lowest effective dose)
Method: In addition, the complete LOPAC1280™ collection was also screened for effects on neural progenitor cells (NPCs) that were derived from the hESCs. Neural progenitors were plated in serum-free MedII conditioned medium at 6×10^4 cells/well and fed daily. Two days after plating, 10 μM of each compound was added and the cells were cultured for an additional 2 days. […] Reduced crystal violet staining was indicative of lower proportions of NPCs. See circled wells in FIG. 7B. The left and right columns of the LOPAC1280™ plates from which the compounds were dispensed were empty and served as untreated controls. […] See Table 6 below listing the name and class of activity of each candidate compound identified in this screen (except chelerythrine chloride, which is listed in Table 5). ChCl was not included in the subsequent round of screening. Therefore only 40 compounds were tested further.
(§1) Using a range of different concentrations from 0.1 to 50 μM, the forty compounds in Table 6 were re-screened (secondary screen) using hESCS and NPCs. The effective dose (ED) was defined as the lowest concentration of a compound that elicited cytotoxicity during the secondary screen. […] The darker wells were indicative of the increased numbers or percentages of proliferating or growing pluripotent stem cells in the wells. In addition, these 40 compounds were screened on differentiating definitive endoderm (DE) cell cultures in 96-well plate impedance assays (described above) to determine which of these compounds were not cytotoxic to definitive endoderm cells at the lowest effective dose on either hESC or NPC. […] See “ACEA DE” column in Table 6.

hESCs = assay: Secondary screen, lowest effective dose on hESCs; conditions: lowest concentration that elicited cytotoxicity, range 0.1 to 50 μM, read-out: ED hESC (lowest effective dose)
Method: To expand the number of potential candidate hESC cytotoxic and inhibitory compounds, the complete LOPAC1280™ collection (containing 1,280 compounds) was screened. In the primary screen, cytotoxicity was tested on undifferentiated hESCs (about 3×10^4 BG01 cells) in 16 standard 96-well trays, in DC-HAIF defined medium on growth factor-reduced MATRIGEL™ diluted 1:200, which were fed daily (FIG. 7A). 10 μM of each compound was added to the hESCs one day after plating, and the cells were cultured for an additional 2 days. Plates were then fixed and stained for alkaline phosphatase (AP) to identify relative decreases in proliferation or growth of hESCs (as reduced AP staining), indicative of lower proportions of hESCs. See the circled wells in FIG. 7A.
as §1

[1] = system: differentiating definitive endoderm (DE) cell cultures; assay: 96-well plate impedance assay (ACEA) on differentiating definitive endoderm at lowest effective dose; parameters: key: Viable: Compounds that did not appear to be cytotoxic toward differentiating DE cultures were marked as “viable”, meaning that the compound did not affect the survival, growth, proliferation or differentiation of the differentiated cells; conditions: at the lowest effective dose on either hESC or NPC
Description: The impedance assay on the hESCs using the compounds in Table 4 above gave greater than twenty (20) hits. However, the ideal candidate compound of the present invention should not only be inhibitory or cytotoxic to human pluripotent stem cells, such as hESCs or hIPSCs, but should at the same time have no effect on cell viability of differentiated or differentiating cell populations including Stage 1, 2, 3, 4 and 5 type cells cultures (definitive endoderm, foregut endoderm, posterior foregut, pancreatic endoderm and endocrine cells, respectively). […] Approximately 3×10^4 hES cells were plated per well and grown for 24 hrs in DC-HAIF defined medium (i.e. StemPro® hESC SFM medium (Life Technologies, Carlsbad, Calif.). Stage 1 or definitive endoderm differentiation was then induced by changing the medium and culturing in RPMI, 100 ng/mL Activin A, and 10 ng/mL of FGF2. […] of GSK-3 beta Inhibitor 15 (Calbiochem #361558) as added to the culture for the first 24 hours of differentiation only. 10 μM of each of the candidate compounds were added about 48 hours or 2 days after differentiation was induced (see FIGS. 3 C & D, large arrowhead), and the cells were cultured for an additional 2 days.
as §1

| Compound | minimal effective concentration (NPCs; Homo sapiens, 48 h) [µM] | minimal effective concentration (hESCs; Homo sapiens) [µM] | ACEA DE [1] | minimal effective concentration (NPCs) [µM] | minimal effective concentration (hESCs) [µM] |
| --- | --- | --- | --- | --- | --- |
| O=C(/C=C/c1ccc(O)c(O)c1)OCCc1ccccc1 [Caffeic acid phenethyl ester] | 5 | < 0.1 | Viable |  |  |
| Oc1ccccc1O [Pyrocatechol] | 5 | 5 | Viable |  |  |
| CC[n+]1c(/C=C/C=C2/N(C)c3ccccc3C2(C)C)sc2ccccc21.[I-] [AC-93253 iodide] |  |  |  | <0.1 | 5 |
| COc1ccc2c(c1)CC[C@@H]1[C@@H]2CC[C@]2(C)[C@@H](NCCCCCCN3C(=O)CCC3=O)CC[C@@H]12 [U-73343] |  |  | Viable | 5 | 10 |
| COCC(=O)O[C@]1(CCN(C)CCCc2nc3ccccc3[nH]2)CCc2cc(F)ccc2[C@@H]1C(C)C [Mibefradil dihydrochloride] | 25 | 25 |  |  |  |
| C[C@@H]1O[C@@H](O[C@H]2C[C@@H](O)[C@]3(CO)[C@H]4[C@H](O)C[C@]5(C)[C@@H](C6=CC(=O)OC6)CC[C@]5(O)[C@@H]4CC[C@]3(O)C2)[C@H](O)[C@H](O)[C@H]1O [Ouabain] | < 0.1 | < 0.1 |  |  |  |
| c1ccc2c(c1)[I+]c1ccccc1-2 [Diphenyleneiodonium chloride] | < 0.1 | 0.1 |  |  |  |
| CNC(=O)[C@H]1O[C@@H](n2cnc3c(NCc4cccc(I)c4)ncnc32)[C@H](O)[C@@H]1O [IB-MECA] |  |  |  | >50 | 50 |
| O=c1[nH]c2ccccc2n1CCCN1CCC(n2c(=O)[nH]c3cc(Cl)ccc32)CC1 [Domperidone] | 0.1 | 25 | Viable |  |  |
| COC(=O)C1=C(C)NC(C)=C(C(=O)OC(C)(C)CN(C)CCC(c2ccccc2)c2ccccc2)C1c1cccc([N+](=O)[O-])c1 (stereo not drawn) [Lercanidipine hydrochloride] | 10 | 10 |  |  |  |
| COc1cc(NS(C)(=O)=O)ccc1Nc1c2ccccc2nc2ccccc12 [Amsacrine hydrochloride] | 0.1 | 1 |  |  |  |
| COc1cc2c(cc1O)CC[C@@H]1[C@@H]2CC[C@]2(C)[C@@H](O)CC[C@@H]12 [2-methoxyestradiol] |  |  |  | 1 | 10 |
| CC(C)[C@H]1c2ccc(F)cc2CC[C@@]1(CCN(C)CCCc1nc2ccccc2[nH]1)OC(=O)C1CC1 [NNC 55-0396] |  |  |  | 5 | 25 |
| CC[C@H]1CN2CCc3cc(OC)c(OC)cc3[C@@H]2C[C@@H]1C[C@H]1NCCc2cc(OC)c(OC)cc21 [Emetine dihydrochloride hydrate] | 0.1 | < 0.1 |  |  |  |
| CNc1ccc2oc(C[C@H]3O[C@@]4(CC[C@H]3C)O[C@H]([C@H](C)C(=O)c3ccc[nH]3)[C@H](C)C[C@H]4C)nc2c1C(=O)O [Calcimycin] | < 0.1 | 1 |  |  |  |
| CCCCCCCC/C=C\CCCCCCCC(=O)NCCc1ccc(O)c(O)c1 [N-Oleoyldopamine] | 1 | 5 | Viable |  |  |
| Oc1cc2c(cc1O)CN(C(=S)NCCc1ccc(Cl)cc1)CCC2 [Capsazepine] | 25 | 5 | Viable |  |  |
| CCN(CC)CCCC(C)Nc1c2ccc(Cl)cc2nc2ccc(OC)cc12 (stereo not drawn) [Quinacrine dihydrochloride] | 25 | 10 | Viable |  |  |

| Compound | minimal effective concentration (NPCs; Homo sapiens, 48 h) [µM] | minimal effective concentration (hESCs; Homo sapiens) [µM] | ACEA DE [1] | minimal effective concentration (NPCs) [µM] | minimal effective concentration (hESCs) [µM] |
| --- | --- | --- | --- | --- | --- |
| CC(C)(C)c1ccc(C(O)CCCN2CCC(C(O)(c3ccccc3)c3ccccc3)CC2)cc1 (stereo not drawn) [Terfenadine] | 10 | 25 |  |  |  |
| Cc1cc(N)c2ccccc2[n+]1CCCCCCCCCC[n+]1c(C)cc(N)c2ccccc21 [Dequalinium chloride hydrate] | 5 | 5 |  |  |  |
| N [Ammonium] |  |  | Viable | >50 | 10 |
| Cc1nc(-c2ccc(-c3ccc(C(=O)N4CCc5cc6c(cc54)C4(CCN(C)CC4)CO6)cc3)c(C)c2)no1 [SB 224289 hydrochloride] | 50 | 25 |  |  |  |
| Nc1ccc(CCN2CCN(c3cccc(C(F)(F)F)c3)CC2)cc1 [PAPP] |  |  |  | >50 | 25 |
| Vinblastine sulfate salt |  |  |  | <0.1 | <0.1 |
| CC1=C(/C=C/C(C)=C/C=C/C(C)=C/C(=O)Nc2ccc(O)cc2)C(C)(C)CCC1 [Retinoic acid p-hydroxyanilide] |  |  | Viable | 5 | 1 |
| CC1(C)CCC2=C(O1)c1ccccc1C(=O)C2=O [beta-Lapachone] | 5 | 5 |  |  |  |
| Oc1cc(-c2ccccc2)nc2nc(Cl)ccc12 [7-Chloro-4-hydroxy-2-phenyl-1,8-naphthyridine] | 5 | 5 | Viable |  |  |
| C=CC1=C(C)c2cc3[nH]c(cc4nc(cc5[nH]c(cc1n2)c(C)c5CCC(=O)O)C(CCC(=O)O)=C4C)c(C)c3C=C [Protoporphyrin IX disodium] | > 50 | 10 | Viable |  |  |
| COc1cc([C@@H]2c3cc4c(cc3[C@H](O)[C@H]3COC(=O)[C@H]23)OCO4)cc(OC)c1OC [Podophyllotoxin] |  | < 0.1 | Viable |  |  |
| C[C@H]1CCC/C=C/[C@@H]2C[C@H](O)C[C@H]2[C@H](O)/C=C/C(=O)O1 [Brefeldin A from Penicillium] |  |  |  | <0.1 | <0.1 |
| Ic1ccccc1CNC1C2CCN(CC2)C1C(c1ccccc1)c1ccccc1.O=C(O)C(=O)O [L-703,606 oxalate] |  |  |  | >50 | 25 |
| Clc1ccc(C(c2ccc(Cl)cc2)n2cc[n+](CC(OCc3ccc(Cl)cc3Cl)c3ccc(Cl)cc3Cl)c2)cc1 (stereo not drawn) [Calmidazolium chloride] | 5 | 5 | Viable |  |  |
| N=C(N)c1ccc(OCCCCCOc2ccc(C(=N)N)cc2)cc1 [Pentamidine isethionate] | 25 | 1 | Viable |  |  |
| CC[N+](CC)(CC)CCOc1ccc(/C=C/c2ccccc2)cc1 [MG 624] | 5 | 0.1 | Viable |  |  |
| C[C@@H]1O[C@@H](O[C@H]2C[C@@H](O)[C@]3(CO)[C@H]4[C@H](O)C[C@]5(C)[C@@H]([C@@H]6COC(=O)C6)CC[C@]5(O)[C@@H]4CC[C@]3(O)C2)[C@H](O)[C@H](O)[C@H]1O [Dihydroouabain] |  |  |  | <0.1 | 1 |
| COc1ccc(CCCOC(Cn2ccnc2)c2ccc(OC)cc2)cc1 (stereo not drawn) [SKF 96365] | 5 | 25 | Viable |  |  |
